Results on 14 molecules are retold here after PubChem BioAssay (NCI).

What all share (assay): DTP human tumour cell line panel, 48 h
In experiment [1] the test system is 786-0 renal.
Experiment [2] concerns A549 NSCLC.
In experiment [3] the test system is HCT-116 colon.
The test system of experiment [4] is HCT-15 colon.
The test system of experiment [5] is MOLT-4 leukemia.
For experiment [6], the system named is OVCAR-3 ovarian.
Experiment [7] relates to U251 CNS.
In experiment [8] the test system is UACC-62 melanoma.
The test system of experiment [9] is T-47D breast.

Several values for one entry are separate records, joined by “and”; a condition that tells them apart may be missing. Equal values may be shown once.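 Interpolation was linear, between the two tested concentrations surrounding the appropriate level; five concentrations were tested over 48 hours in 96-well plates. The concentration for 50% growth inhibition is given as GI50. TGI denotes the concentration required for complete inhibition of growth.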

Usually TGI stands for the concentration at which net growth stops. A higher TGI goes with less potent growth arrest. In the case of `COC(=O)Cc1cc(=O)n2c([nH]c3ccccc32)c1C#N`, the TGI in [1], in experiment [2], in experiment [3], in [4], in experiment [5] and in [6] was above 100 µM throughout. Besides, the TGI in [7] is above 100 µM.

With `CCCCCCCCCCCCC(CCCCCCCCCCCC)OP(=O)(O)O`, the concentration for total growth inhibition (TGI) in experiment [1], in [2], in [3], in experiment [4], in experiment [5] and in experiment [6] was above 100 µM each time. The total growth inhibition concentration (TGI) in experiment [7] and in [8] was above 100 µM each time.

For the molecule `Cc1ccc(NC(=O)CC2C(=O)Nc3ccccc3S2=O)c(C)c1` (stereo unspecified), the TGI in experiment [1] is 33.4 µM; in experiment [2], 64.8 µM; in experiment [3], 38.3 µM; in experiment [4], 25.4 µM; in [5], above 52.5 µM; in experiment [6] it was 23.2 µM. Moreover, the concentration for total growth inhibition (TGI) in experiment [7] is 27 µM; in experiment [8] it was 42.4 µM.

In the case of `CC1=Nc2ccccc2C12C(c1ccccc1)C(c1ccccc1)C(=O)N1c3ccccc3CC12` (stereo unspecified), the TGI in experiment [1], in experiment [2], in [3], in experiment [4], in experiment [5] and in experiment [6] was above 100 µM each time. For the same molecule, the concentration for total growth inhibition (TGI) in [7] and in experiment [8] was above 100 µM in each case.

On to `CC(C)c1cccc(C(C)C)c1NC(=O)CCC(=O)NN`, for which the TGI in experiment [1] is above 100 µM; in [2], above 100 µM; in experiment [3], above 100 µM; in experiment [4], 37.7 µM; in experiment [5], above 100 µM; in experiment [6] it was above 100 µM. The concentration for total growth inhibition (TGI) in experiment [7] and in experiment [8] was above 100 µM throughout.

For the molecule `COC(=O)[C@@]12C=CC(=O)[C@H]3C[C@@H](C(C(C)C)C1)[C@]32OC` (stereo partly specified), the concentration for total growth inhibition (TGI) in experiment [1], in [2], in experiment [3], in experiment [4], in experiment [5] and in experiment [6] was above 100 µM throughout. The total growth inhibition concentration (TGI) in experiment [7] and in experiment [8] was above 100 µM in each case.

In the case of `COc1ccc(C2C3=C(COC3=O)Oc3cc4c(cc32)OCO4)cc1` (stereo unspecified), the TGI in [1] was above 100 µM; in experiment [2], above 100 µM; in [3], above 100 µM; in [4], above 100 µM; in [5], 81.1 µM; in experiment [6], 41.3 µM. For the same molecule, the TGI in [7] and in experiment [8] was above 100 µM throughout.

For the molecule `Cn1nc2ccccc2cc1=O`, the TGI in experiment [1], in experiment [2], in experiment [3], in [4], in experiment [6] and in experiment [7] was above 100 µM throughout. In addition, the TGI in [8] is above 100 µM.

The GI50 is the concentration at which growth is held to half of that of the control. Take `CC(CN)[C@@H]1CC[C@]2(CO)CC[C@]3(C)[C@H](CC[C@@H]4[C@@]5(C)CCC(N)C(C)(C)[C@@H]5CC[C@]43C)[C@@H]12` (stereo partly specified): the GI50 in experiment [1] was 1.58 µM; in [2], 1.85 µM; in experiment [3], 1.68 µM; in experiment [4], 1.69 µM; in experiment [6], 1.71 µM; in experiment [9] it was 1.84 µM. In addition, the GI50 in [7] is 1.91 µM; in experiment [8], 1.92 µM. The TGI in [1] was 3.38 µM; in [2], 3.29 µM; in [3], 3.59 µM; in experiment [4], 3.49 µM; in experiment [6] it was 3.24 µM; in [9] it was 3.99 µM. Moreover, the concentration for total growth inhibition (TGI) turned out to be 3.31 µM in experiment [7] and 3.64 µM in experiment [8].

For `COC(C)(C)[C@H](O)C(O)CC(C)[C@@H]1CCC23CC12CCC1[C@@]2(C)CCC(OC(C)=O)C(C)(C)C2CC(OC2OC(COC(C)=O)C(O)C(O)C2O)[C@]13C` (stereo partly specified), the GI50 in experiment [1] was 11.5 µM; in [2] it was 3.67 µM; in experiment [3], 4.78 µM; in experiment [4] it was 6.86 µM; in [5] it was 0.00625 µM; in [6] it was 4.26 µM. The GI50 in experiment [7] is 5.3 µM; in experiment [8], 6.28 µM. Also, the total growth inhibition concentration (TGI) in experiment [1] was 15 µM and 25.2 µM; in [2] it was 10.1 µM and 13.8 µM; in experiment [3], 8.67 µM and 13.4 µM; in experiment [4], 6.28 µM and 19.8 µM; in experiment [5] it was 26.7 µM and 15.8 µM; in experiment [6], 10.8 µM and 15.9 µM. The total growth inhibition concentration (TGI) in experiment [7] is 9.64 µM and 17.7 µM; in [8], 9.47 µM and 19.2 µM.

On to `c1ccc2c(CNCCCCCCCCCCCCNCc3cccc4ccccc34)cccc2c1`, for which the TGI came to 3.23 µM in experiment [1]; 3.37 µM in [2]; 2.95 µM in [3]; 3.08 µM in experiment [4]; 2.92 µM in experiment [5]; 3.84 µM in experiment [6]. For the same molecule, the TGI in experiment [7] is 3.17 µM; in experiment [8], 3.35 µM.

Regarding `c1ccc2c(c1)[nH]c1c2ncc2[nH]c3ccccc3c21`, the TGI in experiment [1] amounted to 5.61 µM; in experiment [2], 22.6 µM; in [3] it was 3.35 µM; in [4], 7.7 µM; in experiment [5], 8.96 µM; in [6], 6.96 µM. For the same molecule, the TGI worked out at 5.64 µM in [7] and 3.36 µM in experiment [8].

As to `O=C(C=Nc1ccccc1C(=O)[O-])c1cccs1.O=C(C=Nc1ccccc1C(=O)[O-])c1cccs1.[Zn+2]`, the concentration for total growth inhibition (TGI) in experiment [1] is above 100 µM; in experiment [2], above 100 µM; in [3], above 100 µM; in experiment [4] it was above 100 µM; in [5], above 100 µM; in experiment [6], 29.1 µM. Besides, the concentration for total growth inhibition (TGI) in experiment [7] was 35.5 µM; in experiment [8], 42 µM.

Regarding `FC(F)(F)c1nc(-c2ccccc2)oc1Sc1oc(-c2ccccc2)nc1C(F)(F)F`, the TGI in experiment [1], in experiment [2], in [3], in [4], in experiment [5] and in experiment [6] was above 100 µM in each case. Also, the TGI in experiment [7] and in [8] was above 100 µM in each case.
